Data from patent US9597407B2, “Targeted antimicrobial moieties” (C3 Jian, Inc., priority 2009, dated 2017).

System: microorganisms
Experiment: Morphology, biofilm and growth disruption by peptides (Table 5)
Assay type: cell-based
Set-up: key: A: Peptide aggregates; B: Less hyphal formation; Clumps; Diffuse clumps and small polyps; F: Diffuse growth; H: Thin; I: Growth inhibition; Microcolony formation; Rippled; Small polyps; Thick; W: Halo formation on top, microlonies on bottom
Text: In certain embodiments peptides that induce alterations in phenotype or other biological activities can also be used as antimicrobial effector moieties.

Substance: PF-418 (FFLVHFYIRKRKGKVSIFLNYF; Peptide with targeting and/or antimicrobial activity)
- Organism, effect (C. jejuni): C. jejuni (D)
- Organism, effect (E. coli): E. coli (C)
- Organism, effect (E. faecalis): E. faecalis (D)
- Organism, effect (MRSA): MRSA (D)
- Organism, effect (S. epidermidis): S. epidermidis (M)
- Organism, effect (S. pneumoniae): S. pneumoniae (D)

Substance: PF-541 (RRNLNSPNIKTRKRALKIIKQHQRSK; Peptide with targeting and/or antimicrobial activity)
- Organism, effect (morphology, biofilm and growth disruption) (E. coli): E. coli (H)
- Organism, effect (morphology, biofilm and growth disruption) (S. pneumoniae): S. pneumoniae (H)

Substance: PF-342 (AFSGVYKTLIVYTRRK; Peptide with targeting and/or antimicrobial activity)
- Organism, effect (B. subtilis): B. subtilis (C)
- Organism, effect (S. epidermidis): S. epidermidis (C)

Substance: PF-019 (NDTNK; Peptide with targeting and/or antimicrobial activity)
- Organism, effect (MRSA): MRSA (M)

Substance: PF-196 (TTARYIRRQCHTSITPLSQG; Peptide with targeting and/or antimicrobial activity)
- Organism, effect (C. jeikeium): C. jeikeium (R)
- Organism, effect (S. epidermidis): S. epidermidis (C)

Substance: FESKILNASKELDKEKKVNTALSFNSHQDFAKAYQNGKI [PF-606]
- Organism, effect (morphology, biofilm and growth disruption) (C. albicans): C. albicans (B)
- Organism, effect (morphology, biofilm and growth disruption) (MRSA): MRSA (I)
- Organism, effect (morphology, biofilm and growth disruption) (S. epidermidis): S. epidermidis (I)
- Organism, effect (morphology, biofilm and growth disruption) (S. mutans): S. mutans (I)
- Organism, effect (morphology, biofilm and growth disruption) (S. pneumoniae): S. pneumoniae (H)

Substance: SKFKVLRKIIIKEYKGELMLSIQKQR [PF-530]
- Organism, effect (morphology, biofilm and growth disruption) (E. coli): E. coli (R)
- Organism, effect (morphology, biofilm and growth disruption) (E. faecalis): E. faecalis (C)
- Organism, effect (morphology, biofilm and growth disruption) (MRSA): MRSA (C)
- Organism, effect (morphology, biofilm and growth disruption) (S. epidermidis): S. epidermidis (H)
- Organism, effect (morphology, biofilm and growth disruption) (S. pneumoniae): S. pneumoniae (R)

Substance: PF-535 (NIKTRKRALKIIKQHQRSK; Peptide with targeting and/or antimicrobial activity)
- Organism, effect (morphology, biofilm and growth disruption) (P. aeruginosa): P. aeruginosa (H)
- Organism, effect (morphology, biofilm and growth disruption) (S. pneumoniae): S. pneumoniae (H)

Substance: PF-059 (TITLKAGIERALHEEVPGVIEVEQVF; Peptide with targeting and/or antimicrobial activity)
- Organism, effect (C. jejuni): C. jejuni (C)

Substance: PF-264 (MQSLSNRQSLIASYILMGIFLSFGYPPASLSKFFCRLSHL; Peptide with targeting and/or antimicrobial activity)
- Organism, effect (M. luteus): M. luteus (H)

Substance: PF-581 (WTARARR; Peptide with targeting and/or antimicrobial activity)
- Organism, effect (morphology, biofilm and growth disruption) (C. jejuni): C. jejuni (A)
- Organism, effect (morphology, biofilm and growth disruption) (E. faecalis): E. faecalis (A)
- Organism, effect (morphology, biofilm and growth disruption) (MRSA): MRSA (A)
- Organism, effect (morphology, biofilm and growth disruption) (S. pneumoniae): S. pneumoniae (A)

Substance: PF-561 (ESLEADVQAELDTEAAKYPALPASF; Peptide with targeting and/or antimicrobial activity)
- Organism, effect (morphology, biofilm and growth disruption) (B. subtilis): B. subtilis (D)
- Organism, effect (morphology, biofilm and growth disruption) (MRSA): MRSA (M)

Substance: PF-586 (FFNQANYFFKEF; Peptide with targeting and/or antimicrobial activity)
- Organism, effect (morphology, biofilm and growth disruption) (C. jejuni): C. jejuni (D)
- Organism, effect (morphology, biofilm and growth disruption) (E. coli): E. coli (C)
- Organism, effect (morphology, biofilm and growth disruption) (E. faecalis): E. faecalis (D)
- Organism, effect (morphology, biofilm and growth disruption) (MRSA): MRSA (D)
- Organism, effect (morphology, biofilm and growth disruption) (S. epidermidis): S. epidermidis (C)
- Organism, effect (morphology, biofilm and growth disruption) (S. pneumoniae): S. pneumoniae (D)

Substance: KTPNDKIHKTIIIKHIIL [PF-533]
- Organism, effect (morphology, biofilm and growth disruption) (E. coli): E. coli (R)
- Organism, effect (morphology, biofilm and growth disruption) (E. faecalis): E. faecalis (C)
- Organism, effect (morphology, biofilm and growth disruption) (MRSA): MRSA (H)
- Organism, effect (morphology, biofilm and growth disruption) (S. epidermidis): S. epidermidis (H)
- Organism, effect (morphology, biofilm and growth disruption) (S. pneumoniae): S. pneumoniae (C)
